Legend:
p42/p44 MAPK = assay: MAPK assay (EGFR662-681 peptide), L929 cells; type: cell-based, murine
Experimental: MAPK Assay MAPK activity was measured exactly as described previously (Gardner, A. M., et al. (1994) Meth. Enzymol. 238:258-270) with the exception that MonoQ FPLC fractionation was replaced by step elution from a DEAE-Sephacel column using 0.5 M NaCl in loading buffer. The eluate was assayed in triplicate using the epidermal growth factor receptor 662-681 peptide (EGFR662-681) as a selective substrate for MAPK activity (Heasley, L. E., et al. (1994) American Journal of Physiology (Renal Fluid Electrolyte Physiol. 36) 267:F366-F373).

L929 cells = assay: TNFα-mediated apoptosis of L929 cells (neutral red assay, propidium iodide staining); type: cell-based, murine; details: for effect on TNFα-mediated cell death / apoptosis / effect on the protective action of bFGF against TNFα-mediated cell death: L929 cells
Experimental: Cell lines and culture. L929 cells (ATCC CCL1 were maintained in Dulbecco's modified Eagle's medium with 5% newborn claf serum and 5% bovine calf serum (BCS) supplemented with 100 ug/ml streptomycin and 100U/ml penicillin. The cells were grown in 10 cm dishes at 37° C. in 7.5% CO2. Cells were made quiescent where indicated by incubation in Dulbecco's modified Eagle's medium and 0.1% bovine serum albumin for 24 h. Recombinant murine TNFα and recombinant humanbFGF (147aa) were from R&D Systems, Minneapolis, Minn. Cells were pretreated where indicated with the MEK-1 inhibitor PD#098059 (Parke-Davis Pharmaceutical Corp. Ann Arbor, Mich.) for 1 h at 37° C. Cells were stimulated by incubation with the indicated cytokine or growth factor for various times at 37° C. […] Stimulation was stopped by rinsing the plates twice with ice cold phosphate buffered saline (PBS) and lysing the cells in the appropriate lysis buffer. Cells were scraped from the plates and nuclei were pelleted for 10 min at 14,000 RPM in a microcentrifuge.
Neutral Red Assay Uptake of the dye neutral red was used as one measure of cell viability following cytokine or growth factor treatment (Finter, N. B. (1969) J. Gen Virol. 5:419-427). 1.5×10^4-2.5×10^5 L929 cells/well were plated in 12 well tissue culture dishes in 1.25 ml of media. Cells were treated for 15-20 hr with various concentrations of TNFα and/or bFGF. 2.5 μl of 1% neutral red was added to the wells and incubated for 2 hr at 37° C. PBS. The neutral red was extracted with 1.0 ml of 50% ethanol, 50 mM Na-citrate pH 4.2 and absorbency was measured at […].
Propidium iodide staining Cells were plated on glass chamber slides (Nunc, Naperville, Ill.) at a concentration of 0.2-0.6×10^5 cells/ml. Ras expression was induced with 5 mM IPTG in Dulbecco's modified Eagle's medium with 0.1% BCS for 8-12 hr. Cells were exposed to TNFα (5 ng/ml) and/or bFGF (500 pg/ml) in Dulbecco's modified Eagle's medium with 0.1% BCS for 16 hr. The parental LACI expressing cell line (see below) was used as a control. Cells were washed twice in PBS, fixed in acetone:methanol (1:1) −20° C. for 5 min, air dried, washed twice in PBS, stained with 1 μg/ml propidium iodide (PI) in PBS for 20 min, washed in PBS, washed in H2O and mounted in 25% glycerol/PBS. PI fluorescence was observed using a Nikon inverted microscope equipped with epifluorescence and a […] filter. Images were analyzed using IP lab.

JNK = JNK assay (solid state kinase assay with GST-Jun), L929 cells; type: cell-based, murine; details: for effect on JNK activity: bFGF 2.5 ng/ml, PD #098059 pretreatment; for effect on TNFα stimulation of JNK: co-stimulation or IPTG-induced Ras expression
Experimental: JNK assay. JNK activity was measured using a solid state kinase assay in which glutathione S-transferase-c-Jun(1-79) (GST-JUN) cound to glutathione-Sepharose 4B beads was used to affinity pruify JNK and then JNK activity was measured in an in vitro kinase assay using the sepharose bound GST-Jun as a substrate (Hibi, M., et al. (1993) Genes & Development 7:2135-2148). Stimulated or unstimulated cells were lysed in 0.5% Nonidet P-40, 20 mM HEPES pH 7.2, 100 mM NaCl, 2 mM dithiothreitol, lmM EDTA, 1.0 mM phenylmethylsulfonylfluoride, 1 μg/ml aprotinin and the nuclei pelleted. Lysates were normalized for protein content. […] Binding to GST-Jun efficiently isolates the two major forms of JNK (p45and p55) and under the conditions used JNK isolation was linear for 10-250 μg of cell lysate. The lysates were rotated at 4° C. for 1-3 h. Beads were washed twice in lysis buffer and then twice in PAN (10 mM PIPES, pH 7.0, 100 mM NaCl, 21 μg/ml aprotinin). Kinase reactions were carried out at 30° C. for 15 min in 20 mM Hepes pH 7.2, 20 mM β-glycerophosphate, 10 mMp-nitrophenyl phosphate, 10 mM MgCl2, 1 mM dithiothreitol, 50 μm sodium vanadate, 10 μCi γ^32P-ATP 4300 Ci/mmole. The kinase reaction was linear from 0-30 min.

c-Raf-1 = assay: Raf-1 immunoprecipitate in vitro kinase assay, growth factor treated PC12 cells; type: cell-based; details: in comparison to MEKK1 or Raf-B
Experimental: (§1) Reactions were stopped by the addition of 2× SDS sample buffer (20 μl). The samples were boiled for 3 minutes and subjected to SDS-PAGE and autoradiography. Raf-B was immunoprecipitated from the same untreated and treated PC 12 cell lysates as above with an antiserum to a COOH-terminal peptide of Raf-B (Santa Cruz Biotechnology, Inc.) and assayed similarly. Raf-1 was immunoprecipitated with an antiserum to the 12 COOH-terminal amino acids of Raf-1 (Santa Cruz Biotechnology, Inc.).

Raf-B = Raf-B immunoprecipitate in vitro kinase assay, EGF treated PC12 cells; type: cell-based; details: EGF 30 ng/ml timecourse
Experimental: as §1

MEKK1 = MEKK1 immunoprecipitate in vitro kinase assay (MEK-1 phosphorylation), growth factor treated PC12 cells; type: cell-based; details: for MEKK1 activity: serum starved PC12 cells, EGF 30 ng/ml or NGF 100 ng/ml, 5 minutes
[1] = test system: Swiss 3T3 cells and REF52 cells; assay: Beauvericin-induced apoptosis (anti-tubulin and propidium iodide staining); type: cell-based; details: 50 μM, 6 hours, 37° C.
Experimental: A first group of transfected Swiss 3T3 cells and REF52 cells were treated with 50 μM beauvericin for 6 hours at 37° C. Beauvericin is a compound known to induce apoptosis in mammalian cells. A second group of cells were treated with a control buffer lacking beauvericin. The treated cells were then fixed in parafornaldehyde and permeabilized with saponin using protocols standard in the art. The permeabilized cells were then labelled by incubating the cells with a fluorescein-labelled anti-tubulin antibody (1:500; obtained from GIBCO, Gaithersburg, Md.) to detect cytoplasmic shrinkage or 10 μM propidium iodide (obtained from Sigma, St. Louis, Mo.) to stain DNA to detect nuclear condensation. The labelled cells were then viewed by differential fluorescent imaging using a Nikon Diaphot fluorescent microscope.

C-Raf = assay: Raf activation assay (kinase-inactive MEK-1 phosphorylation), L929 cells; type: cell-based, murine
Experimental: (§2) RafActivation Assay Cells were serum starved and challenged in the presence or absence of the appropriate cytokine or growth factors, as described above. Cells were lysed by scraping in ice cold RIPA buffer (50 mM Tris-HCl, pH 7.2, 150 mM NaCl, 0.1% SDS, 0.5% sodium deoxycholate, 1.0% Triton X-100, 10 mM sodium pyrophosphate, 25 mM β-glycerophosphate, 2 mM sodium vanadate, 2.1 µg/ml aprotinin) and the nuclei were pelletted. The supernatants were normalized for protein content and precleared with protein A Sepharose prior to immunoprecipitation with rabbit antiserum to the C terminus of C-Raf, rabbit anti-serum to A-Raf or rabbit antiserum to B-Raf (Santa Cruz Biotech., Santa Cruz, Calif.) and protein A Sepharose for 2-3 hr at 4° C. The beads were washed twice with ice cold RIPA and twice with PAN. A third of the immunoprecipitate was diluted with SDS sample buffer and used for immunoblot analysis. […] Wild-type recombinant MEK-1 was autophosphorylated in parallel as a marker. Reactions were terminated by the addition of 12.5 μl 5× SDS sample buffer, boiled, and subjected to SDS-PAGE and autoradiography.

B-Raf = assay: as above; type: cell-based, murine
Experimental: as §2

Swiss 3T3 cells = assay: Quantitation of MEKKCOOH-induced cell death after nuclear microinjection; type: cell-based
Experimental: Swiss 3T3 and REF52 cells were plated on acid-washed glass cover slips in Dulbecco's Modified Eagle's Medium (DMEM) and 10% bovine calf serum (BCS) or newborn calf serum (NCS). Cells were placed in DMEM/0.1% calf serum for overnight incubation prior to microinjection and used for injection at 50-70% confluence. Injections were performed with an Eppendorf automated microinjection system with needles pulled from glass capillaries on a vertical pipette puller (Kopf, Tujunga, Calif.). Cells were injected with pCMVβ-gal in the presence or absence of pCMV5MEKKCOOH or pCMV5BxBRaf at 20-100 ng/μl for each expression plasmid in 100 mM KC1, 5 mM NaPO4, pH 7.3. […] Similar results were obtained when cells were placed in 10% NCS after microinjection. Propidium iodide (5 pg/ml) was used to stain DNA. X-Gal reactions were performed for six hr.
Seventeen hours after injection cells were fixed and stained for β-galactosidase activity with X-Gal. Injected cells attached to the coverslip were scored as positive for cell death when they were highly condensed, small round cells.

endogenous MEKK1 protein = assay: Cleavage of endogenous MEKK1 after genotoxic stress stimuli (immunoblot); type: cell-based, Human; details: HEK293 cells
Experimental: 200-400 μg cell lysate protein was subjected to SDS-9% PAGE and transferred to nitrocellulose membranes. Blots were performed exactly as described (Widmann et al., 1995). To detect HA-tagged proteins, the mouse monoclonal antibody 12CA5 (Babco) was used as the primary antibody, followed by a rabbit anti-mouse antibody (Cappel). HRP-conjugated protein A at a 1/5000 dilution (Zymed) and ^125I-protein A at a 1/500 dilution (Dupont NEN) were then used for enhanced chemiluminescence (ECL) detection and for quantification using the phosphorimager. To detect MEKK1, 3 different ploclonal antisera were used as primary antibodies, followed by ECL detection using HRP-protein A (see above). These sera were generated by injecting rabbits with GST proteins fused with different portions of the MEKK1 protein.
Several genotoxic stress stimuli were applied to HEK293 cells and their effect on the MEKK1 protein was assessed.

Compound: COc1cccc(-c2cc(=O)c3ccccc3o2)c1N [PD #098059, reference compound]
- effect on bFGF stimulation of MAPK activity (p42/p44 MAPK; L929 cells): inhibited bFGF stimulation of MAPK activity
- effect on TNFα-mediated cell death / apoptosis (L929 cells): no effect on TNFα-mediated apoptosis
- effect on the protective action of bFGF against TNFα-mediated cell death (L929 cells): inhibited the protective action of bFGF
- effect on JNK activity (JNK): did not inhibit JNK kinase or the activation of JNK

Compound: EGF: epidermal growth factor
- activation of c-Raf-1 (c-Raf-1): almost negligible
- time to peak Raf-B activity (Raf-B): 3 to 5 min
- persistence of MEKK1 activation (MEKK1; EGF 30 ng/ml timecourse): at least 30 minutes
- MEKK1 activity (MEKK1): increased MEKK1 activity

Compound: beauvericin
- apoptotic morphology [1]: cytoplasmic shrinkage (monitored by the anti-tubulin antibodies) and nuclear condensation

Compound: bFGF: recombinant human basic fibroblast growth factor (147aa)
- C-Raf activation (C-Raf): activation of both B-Raf and C-Raf
- B-Raf activation (B-Raf): activation of both B-Raf and C-Raf
- concentrations giving maximal stimulation of MAPK activity (p42/p44 MAPK): 0.25 to 0.5 ng/mL
- MAPK activity (p42/p44 MAPK; L929 cells, TNFα 1 ng/ml where stated): robust activation of MAPK
- effect on TNFα-mediated cell death / apoptosis (L929 cells): effective at blocking TNFα-mediated cell death
- cell number (L929 cells; in the absence of TNFα): did not measurably increase cell number
- effect on JNK activity (JNK): little or no effect on JNK activity
- effect on TNFα stimulation of JNK (JNK): did not alter the magnitude of JNK activation

Compound: β-gal: expression plasmid encoding β-galactosidase, injected alone as control
- injected cells with an altered morphology (Swiss 3T3 cells; 48-72 hours post-injection): < 1%
- Condensed Cells (number) (Swiss 3T3 cells; Swiss 3T3 cells, 100 ng/μl plasmids, seventeen hours after injection, highly condensed, small round cells): 4
- Condensed Cells (%) (Swiss 3T3 cells; Swiss 3T3 cells, 100 ng/μl plasmids, seventeen hours after injection, percent of cells injected): 1%

Compound: NGF: growth factor used at 100 ng/ml on PC12 cells
- activation of c-Raf-1 (c-Raf-1): almost negligible
- MEKK1 activity (MEKK1): slight increase in MEKK1 activity

Compound: N17 Ras: HA-tagged inhibitory N17 Ras, IPTG-inducible in L929 cells [reference compound]
- effect on bFGF stimulation of MAPK activity (p42/p44 MAPK; L929 cells): significantly blunted bFGF stimulation of MAPK
- effect on TNFα-mediated cell death / apoptosis (L929 cells): did not affect TNFα induced apoptosis
- effect on the protective action of bFGF against TNFα-mediated cell death (L929 cells): markedly inhibit the ability of bFGF to protect cells
- effect on TNFα stimulation of JNK (JNK): no effect on TNF stimulation of JNK

Compound: N.N.[Cl][Pt][Cl] [cisplatin]
- effect on full length MEKK1 protein (endogenous MEKK1 protein): induced the loss of full length MEKK1
- full length MEKK1 remaining after treatment (endogenous MEKK1 protein): no full length MEKK1 protein remaining

From patent US20020055130A1, “Method and product for regulating apoptosis” (National Jewish Center for Immunology and Respiratory …, priority 1997, published 2002)
